How the values were obtained:
S. aureus DSM 20231 [1] = assay: Bliss interaction score (quartile over a dose matrix) (fitness difference); higher = more antagonism (negative = synergy)
In short: (§1)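 The Bliss score takes observed fitness and subtracts the expected fitness, calculated as a product of single-drug fitness values. Those single-drug values were inferred from the combination data. Fitness is OD595 at entry into stationary phase divided by the plate's robust no-drug mean, capped at 1, and the score is summarised by quartiles across technical, biological and donor/recipient replicates.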

B. subtilis 168 [2] = assay: as above
In short: as §1

S. aureus Newman [3] = assay: as above
In short: as §1

S. pneumoniae D39V [4] = assay: as above
In short: as §1

S. aureus DSM 20231 [5] = assay: fitness (endpoint OD595 vs no drug) (fraction); higher = more growth
In short: (§2)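 Cultures at OD595 0.01 were dispensed into 384-well plates in TSB, LB Lennox or CY and incubated at 37 °C. Every 30 min for 14 h, OD595 was read and corrected by the first reading. Fitness is the optical density at entry into stationary phase relative to the robust mean of no-drug control wells, capped at 1.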

B. subtilis 168 [6] = assay: as above
In short: as §2

S. aureus Newman [7] = assay: as above
In short: as §2

S. pneumoniae D39V [8] = assay: as above
In short: as §2
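For Bliss interaction score (quartile over a dose matrix) in this document: first quartile when negative (synergy) and third quartile when positive (antagonism).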

CCC[C@@H]1C[C@@H](C(=O)N[C@@H]([C@H]2O[C@H](SC)[C@H](O)[C@@H](O)[C@H]2O)[C@H](C)Cl)N(C)C1 [Clindamycin] + CC1=C\[C@@H](O)CC(=O)Cc2nc(co2)C(=O)N2CCC=C2C(=O)O[C@H](C(C)C)[C@H](C)/C=C/C(=O)NC\C=C\1 [Virginiamycin M1]
Conditions	Bliss interaction score
B. subtilis 168 [2]	-0.0417
S. aureus DSM 20231 [1]	-0.0802
S. aureus Newman [3]	-0.0298
S. pneumoniae D39V [4]	-0.0639

one replicate
Conditions	fitness
B. subtilis 168 [6], first compound 0.0039 µg/mL, partner 0.0625 µg/mL	0.963
B. subtilis 168 [6], first compound 0.0039 µg/mL, partner 0.125 µg/mL	0.94
B. subtilis 168 [6], first compound 0.0039 µg/mL, partner 0.25 µg/mL	0.971
B. subtilis 168 [6], first compound 0.0078 µg/mL, partner 0.0625 µg/mL	0.459
B. subtilis 168 [6], first compound 0.0078 µg/mL, partner 0.125 µg/mL	0.881
B. subtilis 168 [6], first compound 0.0078 µg/mL, partner 0.25 µg/mL	0.862
B. subtilis 168 [6], first compound 0.0156 µg/mL, partner 0.0625 µg/mL	0.845
B. subtilis 168 [6], first compound 0.0156 µg/mL, partner 0.125 µg/mL	0.923
B. subtilis 168 [6], first compound 0.0156 µg/mL, partner 0.25 µg/mL	0.927
S. aureus DSM 20231 [5], first compound 0.0312 µg/mL, partner 0.5 µg/mL	0.661
S. aureus DSM 20231 [5], first compound 0.0312 µg/mL, partner 1 µg/mL	0.597
S. aureus DSM 20231 [5], first compound 0.0625 µg/mL, partner 0.5 µg/mL	0.316
S. aureus DSM 20231 [5], first compound 0.0625 µg/mL, partner 1 µg/mL	0.275
S. aureus DSM 20231 [5], first compound 0.125 µg/mL, partner 0.5 µg/mL	0.067
S. aureus DSM 20231 [5], first compound 0.125 µg/mL, partner 1 µg/mL	0.121
S. aureus Newman [7], first compound 0.0312 µg/mL, partner 0.5 µg/mL	0.865
S. aureus Newman [7], first compound 0.0312 µg/mL, partner 1 µg/mL	0.892
S. aureus Newman [7], first compound 0.0312 µg/mL, partner 2 µg/mL	0.769
S. aureus Newman [7], first compound 0.0625 µg/mL, partner 0.5 µg/mL	0.702
S. aureus Newman [7], first compound 0.0625 µg/mL, partner 1 µg/mL	0.728
S. aureus Newman [7], first compound 0.0625 µg/mL, partner 2 µg/mL	0.595
S. aureus Newman [7], first compound 0.125 µg/mL, partner 0.5 µg/mL	0.491
S. aureus Newman [7], first compound 0.125 µg/mL, partner 1 µg/mL	0.475
S. aureus Newman [7], first compound 0.125 µg/mL, partner 2 µg/mL	0.276
S. pneumoniae D39V [8], first compound 0.015 µg/mL, partner 0.15 µg/mL	0.978
S. pneumoniae D39V [8], first compound 0.015 µg/mL, partner 0.3 µg/mL	0.911
S. pneumoniae D39V [8], first compound 0.015 µg/mL, partner 0.5 µg/mL	0.877
S. pneumoniae D39V [8], first compound 0.015 µg/mL, partner 1 µg/mL	0.838
S. pneumoniae D39V [8], first compound 0.03 µg/mL, partner 0.15 µg/mL	0.838
S. pneumoniae D39V [8], first compound 0.03 µg/mL, partner 0.3 µg/mL	0.82
S. pneumoniae D39V [8], first compound 0.03 µg/mL, partner 0.5 µg/mL	0.79
S. pneumoniae D39V [8], first compound 0.03 µg/mL, partner 1 µg/mL	0.652
S. pneumoniae D39V [8], first compound 0.06 µg/mL, partner 0.15 µg/mL	0.736
S. pneumoniae D39V [8], first compound 0.06 µg/mL, partner 0.3 µg/mL	0.695
S. pneumoniae D39V [8], first compound 0.06 µg/mL, partner 0.5 µg/mL	0.703
S. pneumoniae D39V [8], first compound 0.06 µg/mL, partner 1 µg/mL	0.574

Conditions	fitness
B. subtilis 168 [6], first compound 0.0625 µg/mL, partner 0.0625 µg/mL	0.595
B. subtilis 168 [6], first compound 0.0625 µg/mL, partner 0.125 µg/mL	0.564
B. subtilis 168 [6], first compound 0.0625 µg/mL, partner 0.25 µg/mL	0.59
B. subtilis 168 [6], first compound 0.125 µg/mL, partner 0.0625 µg/mL	0.397
B. subtilis 168 [6], first compound 0.125 µg/mL, partner 0.125 µg/mL	0.364
B. subtilis 168 [6], first compound 0.125 µg/mL, partner 0.25 µg/mL	0.38
B. subtilis 168 [6], first compound 0.25 µg/mL, partner 0.0625 µg/mL	0.361
B. subtilis 168 [6], first compound 0.25 µg/mL, partner 0.125 µg/mL	0.357
B. subtilis 168 [6], first compound 0.25 µg/mL, partner 0.25 µg/mL	0.366
S. aureus DSM 20231 [5], first compound 0.0625 µg/mL, partner 0.0625 µg/mL	0.0867
S. aureus DSM 20231 [5], first compound 0.0625 µg/mL, partner 0.125 µg/mL	0.0913
S. aureus DSM 20231 [5], first compound 0.0625 µg/mL, partner 0.25 µg/mL	0.131
S. aureus DSM 20231 [5], first compound 0.125 µg/mL, partner 0.0625 µg/mL	0.0395
S. aureus DSM 20231 [5], first compound 0.125 µg/mL, partner 0.125 µg/mL	0.0407
S. aureus DSM 20231 [5], first compound 0.125 µg/mL, partner 0.25 µg/mL	0.0815
S. aureus Newman [7], first compound 0.0312 µg/mL, partner 0.0625 µg/mL	0.601
S. aureus Newman [7], first compound 0.0312 µg/mL, partner 0.125 µg/mL	0.613
S. aureus Newman [7], first compound 0.0312 µg/mL, partner 0.25 µg/mL	0.622
S. aureus Newman [7], first compound 0.0625 µg/mL, partner 0.0625 µg/mL	0.303
S. aureus Newman [7], first compound 0.0625 µg/mL, partner 0.125 µg/mL	0.321
S. aureus Newman [7], first compound 0.0625 µg/mL, partner 0.25 µg/mL	0.296
S. aureus Newman [7], first compound 0.125 µg/mL, partner 0.0625 µg/mL	0.0641
S. aureus Newman [7], first compound 0.125 µg/mL, partner 0.125 µg/mL	0.0861
S. aureus Newman [7], first compound 0.125 µg/mL, partner 0.25 µg/mL	0.0756
S. pneumoniae D39V [8], first compound 0.0125 µg/mL, partner 0.5 µg/mL	0.735
S. pneumoniae D39V [8], first compound 0.0125 µg/mL, partner 1 µg/mL	0.726
S. pneumoniae D39V [8], first compound 0.0125 µg/mL, partner 2 µg/mL	0.669
S. pneumoniae D39V [8], first compound 0.015 µg/mL, partner 2 µg/mL	0.806
S. pneumoniae D39V [8], first compound 0.025 µg/mL, partner 0.5 µg/mL	0.496
S. pneumoniae D39V [8], first compound 0.025 µg/mL, partner 1 µg/mL	0.471
S. pneumoniae D39V [8], first compound 0.025 µg/mL, partner 2 µg/mL	0.428
S. pneumoniae D39V [8], first compound 0.03 µg/mL, partner 2 µg/mL	0.699
S. pneumoniae D39V [8], first compound 0.05 µg/mL, partner 0.5 µg/mL	0.243
S. pneumoniae D39V [8], first compound 0.05 µg/mL, partner 1 µg/mL	0.217
S. pneumoniae D39V [8], first compound 0.05 µg/mL, partner 2 µg/mL	0.15
S. pneumoniae D39V [8], first compound 0.06 µg/mL, partner 2 µg/mL	0.624

CCC[C@@H]1C[C@@H](C(=O)N[C@@H]([C@H]2O[C@H](SC)[C@H](O)[C@@H](O)[C@H]2O)[C@H](C)Cl)N(C)C1 [Clindamycin] + CCN(CC)CCOC(=O)c1ccc(N)cc1 [Procaine]
Conditions	Bliss interaction score
B. subtilis 168 [2]	-0.067
S. aureus DSM 20231 [1]	-0.0363
S. aureus Newman [3]	0.0552
S. pneumoniae D39V [4]	-0.11

fitness
Conditions	partner 85.5 µg/mL	partner 171 µg/mL	partner 342 µg/mL
B. subtilis 168 [6], first compound 0.0625 µg/mL	0.504	0.483	0.506
B. subtilis 168 [6], first compound 0.125 µg/mL	0.363	0.362	0.367
B. subtilis 168 [6], first compound 0.25 µg/mL	0.344	0.335	0.339
S. aureus DSM 20231 [5], first compound 0.0625 µg/mL	0.196	–	–
S. aureus DSM 20231 [5], first compound 0.125 µg/mL	0.0583	0.0591	0.0589
S. aureus Newman [7], first compound 0.0312 µg/mL	0.706	–	–
S. pneumoniae D39V [8], first compound 0.0125 µg/mL	0.772	0.723	0.746
S. pneumoniae D39V [8], first compound 0.025 µg/mL	0.517	0.472	0.466
S. pneumoniae D39V [8], first compound 0.05 µg/mL	0.205	0.186	0.19

fitness, one replicate
Conditions	first compound 0.0039 µg/mL	first compound 0.0078 µg/mL	first compound 0.015 µg/mL	first compound 0.0156 µg/mL	first compound 0.03 µg/mL	first compound 0.06 µg/mL
B. subtilis 168 [6], partner 85.5 µg/mL	0.941	0.866	–	0.798	–	–
B. subtilis 168 [6], partner 171 µg/mL	0.931	0.838	–	0.814	–	–
B. subtilis 168 [6], partner 342 µg/mL	0.931	0.788	–	0.856	–	–
S. pneumoniae D39V [8], partner 85.5 µg/mL	–	–	0.916	–	0.713	0.349
S. pneumoniae D39V [8], partner 171 µg/mL	–	–	0.956	–	0.766	0.513
S. pneumoniae D39V [8], partner 342 µg/mL	–	–	0.806	–	0.716	0.373

— the supplement of paper PMC10627819
